Results on 13 compounds are retold here after patent US20230399287A1, “NOVEL COMPOUNDS” (Sitryx Therapeutics Limited, priority 2020, published 2023).

A word on the IC50: it is the concentration at which inhibition is half-maximal. A high value points to weaker potency. What is called Emax is the maximal effect, on the per cent scale that the assay sets. What is called EC50 is the midpoint of the concentration-response curve. High values mean a less potent agent, low ones a more potent agent.

Where only a bound is given, the exact number is not on record here.

A short description of data set [1]: Hepatocyte stability assay (human). It is filed as in vitro ADME. The conditions noted are these: human, cryopreserved hepatocytes, 10 μM compound, 60 min, read-out: T½. The text has this: (§1) Defrosted cryo-preserved hepatocytes (viability>70%) were used to determine the metabolic stability of a compound via calculation of intrinsic clearance (Clint; a measure of the removal of a compound from the liver in the absence of blood flow and cell binding). Clearance data are particularly important for in vitro work as they can be used in combination with in vivo data to predict the half-life and oral bioavailability of a drug.
(§2) The metabolic stability in hepatocytes assay involved a time-dependent reaction using both positive and negative controls. The cells must be pre-incubated at 37° C. then spiked with test compound (and positive control); samples taken at pre-determined time intervals were analysed to monitor the change in concentration of the initial drug compound over 60 minutes. A buffer incubation reaction (with no hepatocytes present) acted as a negative control and two cocktail solutions, containing compounds with known high and low clearance values (verapamil/7-hydroxycoumarin and propranolol/diltiazem), acted as positive controls. • 1. The assay was run with a cell concentration of 0.5×10^6 cells/mL in Leibovitz buffer. • 2. All compounds and controls were run in duplicate. • 3. Compound concentration was 10 μM. • 4. All compounds and controls were incubated with both cells and buffer to show turnover is due to hepatic metabolism. • 5. All wells on the incubation plate had 326.7 μL of either cells or buffer added. • 6. Prior to assay, cell and buffer-only incubation plates were preincubated for 10 mins at 37° C. • 7. The assay was initiated by adding compounds, 3.3 μL of 1 mM in 10% DMSO-90% Buffer; final DMSO concentration is 0.1%. • 8. Samples were taken at regular timepoints (0, 5, 10, 20, 40, 60 min) until 60 mins. • 9. Sample volume was 40 μL and added to 160 μL of crash solvent (acetonitrile with internal standard) and stored on ice. • 10. At the end of the assay, the crash plates were centrifuged at 3500 rpm for 20 mins at 4° C. • 11. 80 μL of clear supernatant was removed and mixed with 80 μL of deionised water before being analysed by LC-MS/MS.
(§3) Raw LC-MS/MS data were exported to, and analysed in, Microsoft Excel for determination of intrinsic clearance. The percentage remaining of a compound was monitored using the peak area of the initial concentration as 100%. Intrinsic clearance and half-life values were calculated using a graph of the natural log of percentage remaining versus the time of reaction in minutes. Half-life (min) and intrinsic clearance (Clint in μL min^−1 10^−6 cells) values were calculated using the gradient of the graph (the elimination rate constant, k) and Equations 1 and 2.

For data set [2], the system named is hepatocytes. In words: Hepatocyte stability assay (human). It is filed as in vitro ADME. As to conditions: 10 μM compound, 60 min.
Excerpt: as §1, §2, §3

For data set [3], the system named is IL-6. Nature of the data set: THP-1 AlphaLISA IL-6 cytokine assay. It is filed as cell-based. As to conditions: Homo sapiens, THP-1, differentiated THP-1 cells, LPS 24 hr then Nigericin 1 hour. Here is the method:
(§4) Measuring Inhibitory Effects on IL-1V and IL-6 Cytokine Output from THP-1s
(§5) The cytokine inhibition profiles of compounds of formula (I) were determined in a differentiated THP-1 cell assay. All assays were performed in RPMI-1640 growth medium (Gibco), supplemented with 10% fetal bovine serum (FBS; Gibco), 1% penicillin-streptomycin and 1% sodium pyruvate unless specified otherwise. The IL-1β and IL-6 cytokine inhibition assays were run in a background of differentiated THP-1 cells as described below. All reagents described were from Sigma-Aldrich unless specified otherwise. Compounds were prepared as 10 mM DMSO stocks.
(§6) THP-1 cells were expanded as a suspension up to 80% confluence in appropriate growth medium. Cells were harvested, suspended, and treated with an appropriate concentration of phorbol 12-myristate 13-acetate (PMA) over a 72 hr period (37° C./5% CO2).
(§7) Following 72 hrs of THP-1 cell incubation, cellular medium was removed and replaced with fresh growth media containing 1% of FBS. Working concentrations of compounds were prepared separately in 10% FBS treated growth medium and pre-incubated with the cells for 30 minutes (37° C./5% CO2). Following the 30 minute compound pre-incubation, THP-1s were treated with an appropriate concentration of LPS and the THP-1s were subsequently incubated for a 24 hr period (37° C./5% CO2). An appropriate final concentration of Nigericin was then dispensed into the THP-1 plates and incubated for 1 hour (37° C./5% CO2) before THP-1 supernatants were harvested and collected in separate polypropylene 96-well holding plates.
(§8) Reagents from each of the IL-1β and IL-6 commercial kits (Perkin Elmer) were prepared and run according to the manufacturer's instructions. Subsequently, fluorescence signal detection in a microplate reader was measured (EnVision® Multilabel Reader, Perkin Elmer).
(§9) Percentage inhibition was calculated per cytokine by normalising the sample data to the high and low controls used within each plate (+/−LPS respectively). Percentage inhibition was then plotted against compound concentration and the 50% inhibitory concentration ([…]) was determined from the resultant concentration-response curve.
(Alpha assays give light when donor and acceptor beads are brought close together.)

Data set [4] relates to IL-1β. In words: THP-1 AlphaLISA IL-1β cytokine assay. The format is cell-based. The conditions noted are these: Homo sapiens, THP-1, differentiated THP-1 cells. Here is the method: as §4, §5, §6, §7, §8, §9
The nature of data set [5]: Hepatocyte stability assay (mouse). The format is in vitro ADME. As to conditions: mouse, cryopreserved hepatocytes, 10 μM compound, 60 min, read-out: T½.
Excerpt: as §1, §2, §3

The test system of data set [6] is hepatocytes. In words: Hepatocyte stability assay (mouse). It is filed as in vitro ADME. The conditions noted are these: 10 μM compound, 60 min.
Excerpt: as §1, §2, §3

Data set [7] has as its system NRF2. Nature of the data set: NRF2 +/- GSH activation assay (DiscoverX PathHunter NRF2 translocation kit). The format is cell-based. The conditions noted are these: for Emax: normalised to dimethyl fumarate high control; for EC50: Homo sapiens, U2OS, U2OS PathHunter cells.
Where [8] appears, read: LPS 24 hr then Nigericin 1 hour.

In the case of `C=C(CC(=O)OC1(c2ccc(C(C)(F)F)cc2)CCC1)C(=O)O` [Example 19, 4-(1-(4-(1,1-difluoroethyl)phenyl)cyclobutoxy)-2-methylene-4-oxobutanoic acid], the half-life at 10 μM is 7.45 h in data set [1] and 1.35 h in data set [5]. For the same compound, the results for the Clint in data set [2] and in data set [6] were 4 μL min^−1 10^−6 cells and 23 μL min^−1 10^−6 cells, respectively. The IC50 in data set [3] was over 68.1 µM; in data set [4] (setting [8]), 1.2 µM.

With `C=C(C(=O)O)C(C)(C)C(=O)OC1(c2ccc(C(F)(F)F)cn2)CCC1` [Example 59, 3,3-dimethyl-2-methylene-4-oxo-4-(1-(5-(trifluoromethyl)pyridin-2-yl)cyclobutoxy)butanoic acid], the half-life at 10 μM was 2.3 h in data set [1] and over 7.67 h in data set [5]. Besides, the Clint was 11 μL min^−1 10^−6 cells in data set [2] and under 3 μL min^−1 10^−6 cells in data set [6]. The IC50 was over 31.6 µM in data set [3] and 2.9 µM in data set [4] (setting [8]).

On to `C=C(CC(=O)OC1(c2ccc(Br)cc2)COC1)C(=O)O` [Example 23, 4-((3-(4-bromophenyl)oxetan-3-yl)oxy)-2-methylene-4-oxobutanoic acid], for which the half-life at 10 μM was over 7.67 h in data set [1] and 2.1 h in data set [5]. Also, the Clint was under 3 μL min^−1 10^−6 cells in data set [2] and 12 μL min^−1 10^−6 cells in data set [6]. The IC50 in data set [3] is over 100 µM; in data set [4] (setting [8]) it was 1.4 µM.

With `C=C(CC(=O)OC1(c2ccc(C(F)(F)F)cc2)COC1)C(=O)O` [Example 24, 2-methylene-4-oxo-4-((3-(4-(trifluoromethyl)phenyl)oxetan-3-yl)oxy)butanoic acid], the figures for the half-life at 10 μM in data set [1] and in data set [5] were over 7.67 h and 2.42 h, respectively. In addition, the results for the Clint in data set [2] and in data set [6] were under 3 μL min^−1 10^−6 cells and 11 μL min^−1 10^−6 cells, respectively. The values for the IC50 in data set [3] and in data set [4] (setting [8]) were over 100 µM and 1.4 µM, respectively.

Take `C=C(CC(=O)O[C@]1(c2ccc(C(F)(F)F)cc2)C[C@H](C#N)C1)C(=O)O` [Example 41, 4-((cis)-3-cyano-1-(4-(trifluoromethyl)phenyl)cyclobutoxy)-2-methylene-4-oxobutanoic acid]: the values for the half-life at 10 μM in data set [1] and in data set [5] were over 7.67 h and 4.87 h, respectively. The Clint in data set [2] is under 3 μL min^−1 10^−6 cells; in data set [6], 8 μL min^−1 10^−6 cells. In addition, the IC50 was over 31.6 µM in data set [3] and 2.1 µM in data set [4] (setting [8]).

As for `C=C(CC(=O)OC1(c2ccc(C(F)(F)F)cc2)CC2(CC2)C1)C(=O)O` [Example 61, 2-methylene-4-oxo-4-((5-(4-(trifluoromethyl)phenyl)spiro[2.3]hexan-5-yl)oxy)butanoic acid], the results for the half-life at 10 μM in data set [1] and in data set [5] were 3.58 h and 1.72 h, respectively. For the same compound, the values for the Clint in data set [2] and in data set [6] were 6 μL min^−1 10^−6 cells and 21 μL min^−1 10^−6 cells, respectively. For the same compound, the IC50 was over 100 µM in data set [3] and 5.5 µM in data set [4] (setting [8]).

Consider `C=C(CC(=O)OCc1ccc(C(F)(F)F)c(F)c1)C(=O)O` [Example 55, 4-((3-fluoro-4-(trifluoromethyl)benzyl)oxy)-2-methylene-4-oxobutanoic acid], for which the values for the IC50 in data set [3] and in data set [4] (setting [8]) were over 100 µM and 19.5 µM, respectively. Further, in data set [5], the half-life at 10 μM turned out to be 0.917 h. Also, the Clint in data set [6] came out at 29 μL min^−1 10^−6 cells.

On to `C=C(CC(=O)O[C@@H](C)c1ccc(C(F)(F)F)cc1)C(=O)O` [Example 4, (S)-2-methylene-4-oxo-4-(1-(4-(trifluoromethyl)phenyl)ethoxy)butanoic acid], for which the half-life at 10 μM in data set [1] turned out to be 2.45 h. Besides, the Clint in data set [2] came out at 10 μL min^−1 10^−6 cells. The Emax is 0% in data set [7] (+GSH) and 4% in data set [7] (−GSH). Besides, the concentration for a half-maximal effect (EC50) in data set [7] (+GSH) and in data set [7] (−GSH) was over 100 µM in each case. The IC50 in data set [3] is over 56.2 µM; in data set [4] (setting [8]), 1.9 µM.

As for `C=C(CC(=O)O[C@]1(c2ccc(C(F)(F)F)cc2)C[C@H](OC)C1)C(=O)O` [Example 42, 4-((cis)-3-methoxy-1-(4-(trifluoromethyl)phenyl)cyclobutoxy)-2-methylene-4-oxobutanoic acid], the half-life at 10 μM in data set [1] was 7.47 h; in data set [5], over 7.67 h. Further, the Clint in data set [2] is given as 4 μL min^−1 10^−6 cells; in data set [6], under 3 μL min^−1 10^−6 cells. Moreover, the half-inhibitory concentration (IC50) in data set [3] is over 31.6 µM; in data set [4] (setting [8]) it was 17.1 µM.

On to `C=C(CC(=O)OC1(c2ccc(S(F)(F)(F)(F)F)cc2)CCC1)C(=O)O` [Example 18, 2-methylene-4-oxo-4-(1-(4-(pentafluoro-λ^6-sulfaneyl)phenyl)cyclobutoxy)butanoic acid], for which the results for the half-life at 10 μM in data set [1] and in data set [5] were 3.63 h and 0.633 h, respectively. In addition, the Clint in data set [2] stood at 8 μL min^−1 10^−6 cells; in data set [6], 50 μL min^−1 10^−6 cells. For the same compound, the IC50 was 62.1 µM in data set [3] and 1.8 µM in data set [4] (setting [8]).

Regarding `C=C(CC(=O)OC1(c2ccc(Br)cc2)CCC1)C(=O)O` [Example 5, 4-(1-(4-bromophenyl)cyclobutoxy)-2-methylene-4-oxobutanoic acid], the half-life at 10 μM in data set [1] worked out at 1.48 h; in data set [5] it was 1.13 h. Further, the results for the Clint in data set [2] and in data set [6] were 15 μL min^−1 10^−6 cells and 25 μL min^−1 10^−6 cells, respectively. Further, the IC50 in data set [3] is over 31.6 µM; in data set [4] (setting [8]), 0.7 µM.

Regarding `C=C(C(=O)O)C1(C(=O)OC2(c3ccc(C(F)(F)F)cc3)CCC2)CC1` [Example 39, 2-(1-((1-(4-(trifluoromethyl)phenyl)cyclobutoxy)carbonyl)cyclopropyl)acrylic acid], the values for the half-life at 10 μM in data set [1] and in data set [5] were 1.08 h and 0.8 h, respectively. Also, the Clint in data set [2] is reported as 18 μL min^−1 10^−6 cells; in data set [6], 45 μL min^−1 10^−6 cells. For the same compound, the figures for the IC50 in data set [3] and in data set [4] (setting [8]) were over 100 µM and 1.5 µM, respectively.

Take `C=C(CC(=O)OC1(c2ccc(C(F)(F)F)cn2)CCC1)C(=O)O` [Example 27, 2-methylene-4-oxo-4-(1-(5-(trifluoromethyl)pyridin-2-yl)cyclobutoxy)butanoic acid]: the half-life at 10 μM in data set [1] and in data set [5] was over 7.67 h each time. In addition, the Clint in data set [2] and in data set [6] was under 3 μL min^−1 10^−6 cells each time. For the same compound, the IC50 in data set [3] is over 100 µM; in data set [4] (setting [8]), 1.4 µM; in data set [4] (data from repeated experiments), 4 µM.
